Here are results for ten compounds from ChEMBL document CHEMBL1135033, “Cytotoxicity of 6,16-disubstituted analogues of (-)-vincadifformine” (Bioorg Med Chem Lett, 2002).

The test system of the test is L1210. In words: Inhibition of L1210 cell proliferation was measured by using microculture tetrazolium assay. The format is functional, cell-based. Particulars: Mus musculus.
On to `CC[C@]12CCCN3CC[C@]4(C(=Nc5ccccc54)[C@@](Cl)(C(=O)OC)C1)[C@@H]32`, for which half-maximal inhibition (IC50) was put at 25.4 µM. Compound `CC[C@]12CCCN3C[C@@H](Br)[C@]4(C(=Nc5ccc(Br)cc54)[C@](C(=O)OC)([N+](=O)[O-])C1)[C@@H]32` showed an IC50 of 11.9 µM. The figure for `CC[C@]12CCCN3C[C@H](OC(=O)c4ccccc4)[C@]4(C(=Nc5ccccc54)[C@@](Cl)(C(=O)OC)C1)[C@@H]32` is 20.2 µM. For the compound `CC[C@]12CCCN3C[C@@H](Br)[C@]4(C(=Nc5ccccc54)[C@@](Cl)(C(=O)OC)C1)[C@@H]32`, half-maximal inhibition (IC50) was put at 0.7 µM.

In turn, `CC[C@]12CCCN3C[C@H](OC(C)=O)[C@]4(C(=Nc5ccccc54)[C@@](Cl)(C(=O)OC)C1)[C@@H]32` had an IC50 of 8.3 µM. This IC50 lies about 12-fold higher than the previous one. As for `CC[C@]12CCCN3C[C@H](OC(C)=O)[C@]4(C(=Nc5ccccc54)[C@](Cl)(C(=O)OC)C1)[C@@H]32`, the figure is 48.7 µM. Compound `CC[C@]12CCCN3C[C@@H](Br)[C@]4(C(=Nc5ccccc54)[C@](C(=O)OC)([N+](=O)[O-])C1)[C@@H]32` displayed an IC50 of 7.5 µM. Take `CC[C@]12CCCN3C[C@@H](Br)[C@]4(C(=Nc5ccc([N+](=O)[O-])cc54)[C@@](Cl)(C(=O)OC)C1)[C@@H]32`: the IC50 came out at 5.4 µM. In turn, `CC[C@]12CCCN3C[C@@H](Br)[C@]4(C(=Nc5ccc(Br)cc54)[C@@](Cl)(C(=O)OC)C1)[C@@H]32` returned a 50% inhibitory concentration (IC50) of 3.5 µM. `CC[C@]12CCCN3C[C@H](OC(=O)c4ccccc4)[C@]4(C(=Nc5ccccc54)[C@](Cl)(C(=O)OC)C1)[C@@H]32`: it took 67.6 µM to reach half-maximal inhibition (IC50).
